Measurements as given in the supplement of paper PMC10307832.

Key:
Assay in all cases: relative viability (nuclei count vs DMSO), 5 days (fraction); higher = more cells survive
[1] = system: NCI-H1437
Method in brief: (§1)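 Dosing by pin tool came one day after lung cancer cell lines were seeded in 1536-well plates, using either one drug or a fixed anchor-drug dose plus five library-drug doses (not always all listed) in √10 steps. After 5 days, nuclei were counted on 4× images. Relative viability is treated-well nuclei count divided by vehicle-well nuclei count, and values are medians of duplicate plates.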

[2] = system: COR-L 105
Method in brief: as §1

[3] = system: NCI-H661
Method in brief: as §1

[4] = system: NCI-H1975
Method in brief: as §1

[5] = system: UMC-11
Method in brief: as §1

[6] = system: NCI-H2023
Method in brief: as §1

[7] = system: HCC-78
Method in brief: as §1

[8] = system: LCLC-103H
Method in brief: as §1

[9] = system: HARA
Method in brief: as §1

[10] = system: NCI-H1944
Method in brief: as §1

[11] = system: COR-L23
Method in brief: as §1

[12] = system: NCI-H2085
Method in brief: as §1

[13] = system: HCC-44
Method in brief: as §1

[14] = system: NCI-H727
Method in brief: as §1

[15] = system: NCI-H2405
Method in brief: as §1

[16] = system: NCI-H358
Method in brief: as §1

[17] = system: EPLC-272H
Method in brief: as §1

[18] = system: NCI-H1792
Method in brief: as §1

[19] = system: NCI-H1395
Method in brief: as §1

[20] = system: SK-LU-1
Method in brief: as §1

[21] = system: HCC-15
Method in brief: as §1

[22] = system: HCC-366
Method in brief: as §1

[23] = system: HCC-827
Method in brief: as §1

## Cc1cnc(-c2cnc(NCCNc3ccc(C#N)cn3)nc2-c2ccc(Cl)cc2Cl)[nH]1 + COc1cccc2cc(-c3nc([C@H]4CC[C@H](C(=O)O)CC4)n4ncnc(N)c34)[nH]c12 [OSI-027] (partner 0.5 µM)
[1]; first compound 0.08 µM
  relative viability: 0.896
[1]; first compound 0.253 µM
  relative viability: 0.88
[1]; first compound 0.8 µM
  relative viability: 0.916
[1]; first compound 2.53 µM
  relative viability: 0.976
[2]; first compound 0.08 µM
  relative viability: 0.769
[2]; first compound 0.253 µM
  relative viability: 0.661
[2]; first compound 0.8 µM
  relative viability: 0.694
[2]; first compound 2.53 µM
  relative viability: 0.379
[3]; first compound 0.08 µM
  relative viability: 0.77
[3]; first compound 0.253 µM
  relative viability: 0.667
[3]; first compound 0.8 µM
  relative viability: 0.743
[3]; first compound 2.53 µM
  relative viability: 0.802
[4]; first compound 0.08 µM
  relative viability: 0.839
[4]; first compound 0.253 µM
  relative viability: 0.647
[4]; first compound 0.8 µM
  relative viability: 0.6
[4]; first compound 2.53 µM
  relative viability: 0.399
[5]; first compound 0.08 µM
  relative viability: 0.594
[5]; first compound 0.253 µM
  relative viability: 0.477
[5]; first compound 0.8 µM
  relative viability: 0.591
[6]; first compound 0.08 µM
  relative viability: 0.565
[6]; first compound 0.253 µM
  relative viability: 0.395
[6]; first compound 0.8 µM
  relative viability: 0.431
[6]; first compound 2.53 µM
  relative viability: 0.715
[7]; first compound 0.08 µM
  relative viability: 0.41
[7]; first compound 0.253 µM
  relative viability: 0.391
[7]; first compound 0.8 µM
  relative viability: 0.366
[7]; first compound 2.53 µM
  relative viability: 0.438
[8]; first compound 0.08 µM
  relative viability: 0.46
[8]; first compound 0.253 µM
  relative viability: 0.413
[8]; first compound 0.8 µM
  relative viability: 0.428
[8]; first compound 2.53 µM
  relative viability: 0.473
[9]; first compound 0.08 µM
  relative viability: 0.554
[9]; first compound 0.253 µM
  relative viability: 0.376
[9]; first compound 0.8 µM
  relative viability: 0.469
[9]; first compound 2.53 µM
  relative viability: 0.562
[10]; first compound 0.08 µM
  relative viability: 0.422
[10]; first compound 0.8 µM
  relative viability: 0.489
[10]; first compound 2.53 µM
  relative viability: 0.685
[11]; first compound 0.08 µM
  relative viability: 0.805
[11]; first compound 0.253 µM
  relative viability: 0.762
[11]; first compound 0.8 µM
  relative viability: 0.885
[11]; first compound 2.53 µM
  relative viability: 0.906
[12]; first compound 0.08 µM
  relative viability: 0.812
[12]; first compound 0.253 µM
  relative viability: 0.786
[12]; first compound 0.8 µM
  relative viability: 0.677
[12]; first compound 2.53 µM
  relative viability: 0.756
[13]; first compound 0.08 µM
  relative viability: 0.555
[13]; first compound 0.253 µM
  relative viability: 0.483
[13]; first compound 0.8 µM
  relative viability: 0.485
[13]; first compound 2.53 µM
  relative viability: 0.932
[14]; first compound 0.08 µM
  relative viability: 0.588
[14]; first compound 0.253 µM
  relative viability: 0.589
[14]; first compound 0.8 µM
  relative viability: 0.518
[14]; first compound 2.53 µM
  relative viability: 0.442
[15]; first compound 0.08 µM
  relative viability: 0.655
[15]; first compound 0.253 µM
  relative viability: 0.654
[15]; first compound 0.8 µM
  relative viability: 0.654
[15]; first compound 2.53 µM
  relative viability: 0.615
[16]; first compound 0.08 µM
  relative viability: 0.843
[16]; first compound 0.253 µM
  relative viability: 0.647
[16]; first compound 0.8 µM
  relative viability: 0.771
[16]; first compound 2.53 µM
  relative viability: 0.627
[17]; first compound 0.08 µM
  relative viability: 0.342
[17]; first compound 0.253 µM
  relative viability: 0.261
[17]; first compound 0.8 µM
  relative viability: 0.304
[17]; first compound 2.53 µM
  relative viability: 0.317
[18]; first compound 0.08 µM
  relative viability: 0.866
[18]; first compound 0.253 µM
  relative viability: 0.715
[18]; first compound 0.8 µM
  relative viability: 0.618
[18]; first compound 2.53 µM
  relative viability: 0.666
[19]; first compound 0.08 µM
  relative viability: 0.828
[19]; first compound 0.253 µM
  relative viability: 0.525
[19]; first compound 0.8 µM
  relative viability: 0.602
[19]; first compound 2.53 µM
  relative viability: 0.67
[20]; first compound 0.08 µM
  relative viability: 0.344
[20]; first compound 0.253 µM
  relative viability: 0.336
[20]; first compound 0.8 µM
  relative viability: 0.35
[20]; first compound 2.53 µM
  relative viability: 0.463
[21]; first compound 0.08 µM
  relative viability: 0.707
[21]; first compound 0.253 µM
  relative viability: 0.665
[21]; first compound 0.8 µM
  relative viability: 0.512
[21]; first compound 2.53 µM
  relative viability: 0.786
[22]; first compound 0.08 µM
  relative viability: 1.01
[22]; first compound 0.253 µM
  relative viability: 0.489
[22]; first compound 0.8 µM
  relative viability: 0.558
[22]; first compound 2.53 µM
  relative viability: 0.695
[23]; first compound 0.08 µM
  relative viability: 0.903
[23]; first compound 0.8 µM
  relative viability: 0.814
[23]; first compound 2.53 µM
  relative viability: 0.759
